Tests used:
[1] = system: H1N1 (influenza A/New Caledonia/20/99); assay: Antiviral effect on A549 cells infected with H1N1; format: cell-based, H1N1 A/New Caledonia/20/99 virus; details: Human A549 cells, MOI of 0.1, 48 h post-infection, MUNANA hydrolysis readout
Procedure: The antiviral effect of the compounds of the invention has been tested on A549 cell lines infected with H1N1 (influenza A/New Caledonia/20/99).
Human A549 cells (80,000 cells/well in a 96 well plate) were treated with a range of concentration of test molecules and immediately infected by H1N1 A/New Caledonia/20/99 virus (clinical isolate) at MOI of 0.1 in DMEM/1% Penicillin/streptomycin supplemented with 0.25 μg/ml TPCK trypsin (Sigma) and incubated at 37° C. in 5% CO2. 48 h post-infection, supernatants (25 μl) were collected and transferred into a 96-well black flat-bottom plate, mixed with 25 μl PBS with Ca++/Mg++(Thermo Fisher) and 50 μl of 2′-(4-Methylumbelliferyl)-α-D-N-acetylneuraminic acid sodium salt hydrate stock-solution (20 μM, MUNANA, Sigma). Plates were incubated 1 h at 37° C. and reaction is stopped by adding 100 μl of Stop Solution (glycine 0.1 M pH10.7/25% ethanol). The amount of fluorescent product released by MUNANA hydrolysis (4-MU) was measured in a Tecan spectrophotometer with excitation and emission wavelengths of 365 and 450 nm respectively.

[2] = target: T1, CISD1 Gene Product (mitoNEET) (Homo sapiens, UniProt Q9NZ45); assay: Stability of Fe—S cluster binding of purified NEET protein mitoNEET; format: biochemical; details: for Time (in minutes) to achieve 50% loss of bound cluster (Absorbance 458 nm), CISD1 Gene Product (mitoNEET) / Residual cluster bound at end of experiment (Percentage Absorbance 458 nm at time zero), CISD1 Gene Product (mitoNEET): pH 6, 37° C., 1:3 protein:compound molar ratio; for Time (in minutes) to achieve 50% loss of bound cluster (Absorbance 458 nm), CISD1 Gene Product (mitoNEET): 6 μM compound, run time 180 minutes, Vehicle Control 80; for Residual cluster bound at end of experiment (Percentage Absorbance 458 nm at time zero), CISD1 Gene Product (mitoNEET): end of 180 minutes, Vehicle Control 16%; for stabiliser or destabiliser of Fe—S cluster binding, CISD1 Gene Product (mitoNEET): time to 50% Fe—S cluster bound loss changed by more than 25% vs Control sample, at the concentrations tested
T1 sequence (Q9NZ45 33-108 limits assumed): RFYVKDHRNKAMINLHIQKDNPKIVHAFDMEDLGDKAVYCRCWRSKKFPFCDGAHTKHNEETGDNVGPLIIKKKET
Procedure: (§1) The modulator effect on the NEET proteins encoded by human CISD1, CISD2, and CISD3 genes by the compounds of the invention has been tested and is reported below. Particularly, the biochemical function of the NEET proteins is measured by the stability of Fe—S cluster binding of the purified NEET proteins.
(§2) The Fe—S cluster binding capacity of NEET proteins is known to be coordinated by four amino-acids in a stretch of 16 (three Cysteine and one Histidine). As the lability of the Fe—S cluster of NEET proteins is sensitive to the environment, cluster stability measurements are one of the measures of interactions of NEET proteins with small molecules and compounds. NEET protein/2Fe-2S cluster stability can be assessed by monitoring the decay in absorbance of its characteristic 458-nm peak (characteristic of the oxidized 2Fe-2S cluster) over time. Each NEET protein (mitoNEET, NAF-1 and Miner 2) was tested for its Fe—S binding in the absence or presence of a compound according to the invention (see table 2 below). The rate of cluster release (time in minutes to achieve 50% loss of bound Fe—S cluster) was compared for each NEET protein in the presence of one of the compounds of the invention (in a 1:3 protein:compound molar ratio) relative to each protein alone.
(§3) At pH 6, all the three NEET proteins (mitoNEET, NAF-1 and Miner 2) have a characteristic rate of loss of the bound Fe—S cluster that can be measured by the decrease of absorbance at wavelength 458 nm over time, using a spectrophotometer. Thus, Bis-Tris buffer (100 mM Bis-Tris pH6, 100 mM Nacl) was used at pH 6 to dilute either DMSO (Blank sample: Bis-Tris Buffer pH 6, 6 μM DMSO), DMSO and one of the three NEET proteins (Control sample: Bis-Tris Buffer pH 6, 6 μM DMSO, 2 μM purified NEET protein) or DMSO, one of the three NEET proteins and a compound of the invention (Test sample: Bis-Tris Buffer pH 6, 6 μM DMSO, […], 6 μM compound of the invention).
(§4) A reaction mix containing DMSO diluted in the Bis-Tris Buffer with or without a compound of the invention was prepared. The purified NEET protein was the last component added to the reaction mix which was then aliquoted into 4 replicates in 96 wells plates. The absorbance at wavelength 458 nm was taken at 5 minutes intervals at 37° C. with a spectrofluorimeter. The assay run time for CISD2 gene product (NAF-1) was 500 minutes and 180 minutes for both the CISD 1 gene product (mitoNEET) and the CISD3 gene product (Miner 2).
(§5) In addition to time monitoring, residual bound Fe—S cluster to NEET protein was measured at the final point of the spectrometry assay for each Test sample and compared to the Control sample data (in parenthesis table 2). This residual binding is measured by the differential percentage between the absorbance 458 nm at time zero and the absorbance 458 nm at the end of the experiment (i.e. respectively 500 or 180 minutes as described hereabove), showing the percentage of NEET protein still able to bind a Fe—S cluster.
(§6) Analysis of the absorbance enables the time for which 50% loss of bound Fe—S cluster is reached (i.e. a 50% absorbance decrease at 458 nm) for each Test sample and each Control sample (in parenthesis table 2) to be determined. The data are then compared to determine whether the compound of the invention stabilizes or destabilizes the NEET protein/Fe—S cluster binding.

[3] = target: T2, CISD2 Gene Product (NAF-1) (Homo sapiens, UniProt Q8N5K1); assay: Stability of Fe—S cluster binding of purified NEET protein NAF-1; format: biochemical; details: for Time (in minutes) to achieve 50% loss of bound cluster (Absorbance 458 nm), CISD2 Gene Product (NAF-1) / Residual cluster bound at end of experiment (Percentage Absorbance 458 nm at time zero), CISD2 Gene Product (NAF-1): pH 6, 37° C., 1:3 protein:compound molar ratio; for Time (in minutes) to achieve 50% loss of bound cluster (Absorbance 458 nm), CISD2 Gene Product (NAF-1): 6 μM compound, run time 500 minutes, Vehicle Control 310; for Residual cluster bound at end of experiment (Percentage Absorbance 458 nm at time zero), CISD2 Gene Product (NAF-1): end of 500 minutes, Vehicle Control 3%; for stabiliser or destabiliser of Fe—S cluster binding, CISD2 Gene Product (NAF-1): time to 50% Fe—S cluster bound loss changed by more than 25% vs Control sample, at the concentrations tested
T2 sequence (Q8N5K1 57-135 limits assumed): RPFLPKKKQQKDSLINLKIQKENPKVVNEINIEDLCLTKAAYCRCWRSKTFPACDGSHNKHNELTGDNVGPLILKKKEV
Procedure: as §1, §2, §3, §4, §5, §6

[4] = target: T3, CISD3 Gene Product (Miner2) (Homo sapiens, UniProt P0C7P0); assay: Stability of Fe—S cluster binding of purified NEET protein Miner2; format: biochemical; details: for Time (in minutes) to achieve 50% loss of bound cluster (Absorbance 458 nm), CISD3 Gene Product (Miner2) / Residual cluster bound at end of experiment (Percentage Absorbance 458 nm at time zero), CISD3 Gene Product (DMSO 11%): pH 6, 37° C., 1:3 protein:compound molar ratio; for Time (in minutes) to achieve 50% loss of bound cluster (Absorbance 458 nm), CISD3 Gene Product (Miner2): 6 μM compound, run time 180 minutes, Vehicle Control 60; for Residual cluster bound at end of experiment (Percentage Absorbance 458 nm at time zero), CISD3 Gene Product (DMSO 11%): end of 180 minutes, Vehicle Control 11%; for stabiliser or destabiliser of Fe—S cluster binding, CISD3 Gene Product (Miner2): time to 50% Fe—S cluster bound loss changed by more than 25% vs Control sample, at the concentrations tested
T3 sequence (P0C7P0 15-127): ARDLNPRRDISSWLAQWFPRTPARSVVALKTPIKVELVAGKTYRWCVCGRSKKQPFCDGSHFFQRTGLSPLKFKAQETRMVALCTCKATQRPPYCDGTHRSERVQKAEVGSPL
Procedure: as §1, §2, §3, §4, §5, §6

[5] = Influenza A virus, H1N1, A549, 48 h

SMILES	IC50 [1] [µM]	Time (in minutes) to achieve 50% loss of bound cluster (Absorbance 458 nm), CISD1 Gene Product (mitoNEET) [2]	Residual cluster bound at end of experiment (Percentage Absorbance 458 nm at time zero), CISD1 Gene Product (mitoNEET) [2] [%]	stabiliser or destabiliser of Fe—S cluster binding, CISD1 Gene Product (mitoNEET) [2]	Time (in minutes) to achieve 50% loss of bound cluster (Absorbance 458 nm), CISD2 Gene Product (NAF-1) [3]	Residual cluster bound at end of experiment (Percentage Absorbance 458 nm at time zero), CISD2 Gene Product (NAF-1) [3] [%]	stabiliser or destabiliser of Fe—S cluster binding, CISD2 Gene Product (NAF-1) [3]	Time (in minutes) to achieve 50% loss of bound cluster (Absorbance 458 nm), CISD3 Gene Product (Miner2) [4]	Residual cluster bound at end of experiment (Percentage Absorbance 458 nm at time zero), CISD3 Gene Product (DMSO 11%) [4] [%]	IC50 [1, 5] [µM]	stabiliser or destabiliser of Fe—S cluster binding, CISD3 Gene Product (Miner2) [4]
CC(C)(C)C1CCc2c(sc(NC(=O)c3ccccc3)c2C(=O)O)C1 (stereo not drawn) [#71]	0.16	100 min	34	stabilisers	125 min	15	destabilisers	70 min	42	–	–
CC1CCCc2sc(NC(=O)c3ccccc3)c(C(=O)O)c21 (stereo not drawn) [#74]	0.181	90 min	0	–	390 min	0	Stabilisers	65 min	5	–	–
O=C(Nc1sc2c(c1C(=O)O)CCN(c1ccccc1)C2)c1ccccc1 [#52]	–	100 min	47	stabilisers	during 500 minutes	50	Stabilisers	during 180 minutes	54	0.09	Stabilisers
COc1ccc(C(=O)Nc2sc3c(c2C(=O)O)CCN(c2ccc(F)cc2C)C3)cc1OC [#54]	–	105 min	35	stabilisers	305 min	31	–	85 min	41	0.06	Stabilisers
CC(C)(C)C1CCc2c(sc(NC(=O)c3ccccc3Cl)c2C(=O)O)C1 (stereo not drawn) [#107]	–	105 min	35	stabilisers	255 min	21	–	75 min	41	1.15	Stabilisers
O=C(Nc1sc2c(c1C(=O)O)C(c1ccccc1)CCC2)c1ccccc1 (stereo not drawn) [#112]	–	100 min	29	stabilisers	425 min	23	Stabilisers	during 180 minutes	64	1.37	Stabilisers
Cc1ccccc1C(=O)Nc1sc2c(c1C(=O)O)CCC(C(C)(C)C)C2 (stereo not drawn) [#82]	–	during 180 minutes	60	stabilisers	265 min	27	–	during 180 minutes	64	0.349	Stabilisers
CC(C)(C)C1CCc2c(sc(NC(=O)C3CCCCC3)c2C(=O)O)C1 (stereo not drawn) [#115]	–	100 min	34	stabilisers	240 min	15	–	65 min	28	1.47	–
